# US7820400B2, “Tumor-associated marker” (The Trustees of Columbia University in the City of New York, priority 2000, dated 2010)
# Tested on: SK-BR-3 cells
# Assay: Release of TIP-2 antigen into culture media of Taxol-treated cells (Western blot)
# Assay type: cell-based, human
# Conditions: SK-BR-3 cells treated with increasing amounts of Taxol (5.5-88 uM)
# Protocol: The release of TIP-2 antigen into cell culture media of SK-BR-3 cells treated with different concentration of Taxol. The lines are as follows (from left to right): 1) SK-BR-3 cell lysate prepared form approximately 70,000 cells; 2) empty lane; 3) Taxol, 88 uM added to 35 mm tissue plate containing approximately 250,000 cells; 4) same with Taxol, 44 uM; 5) same with Taxol, 22 uM; 7) same with Taxol, 11 uM; 8) same with Taxol, 5.5 uM; 9) cell lysate prepared from cells which were not treated with Taxol; 10) lysate prepared from the residual dead cells' remnants after treatment with Taxol, 88 uM.
# Using a specific fusion partner cell line MFP-2 were developed two fully human antibodies to breast and prostate cancer-associated antigens. Both antigens were reactive with a 42 kDa-protein target, which was identified through SEREX technology as Ga-interacting protein, C terminus or Tax interacting protein, clone 2. This protein is specifically overexpressed in three human breast cancer cell lines, SK-BR-3, MCF-7 and ZR-1-75, has very low if any expression level in human prostate cancer lines, PC-3, LNCaP and DU-145 and no expression in two human fibroblast cell lines. […] Normal breast epithelia were negative for staining with anti-TIP-2 antibodies as was benign prostate hyperplasia (BPH) tissue. […]
structure (smiles),measurement,value
CC(=O)O[C@H]1C(=O)[C@@]2(C)[C@H]([C@H](OC(=O)c3ccccc3)[C@]3(O)C[C@H](OC(=O)[C@H](O)[C@@H](NC(=O)c4ccccc4)c4ccccc4)C(C)=C1C3(C)C)[C@]1(OC(C)=O)CO[C@@H]1C[C@@H]2O [Taxol],release of TIP-2 antigen into the media,TIP-2 antigen released into the media in a dose dependent manner
